Assay [1] deals with T1, 5-HT1A receptor (Rattus norvegicus, UniProt P19327).
T1 construct: rat hippocampal membrane homogenate; from tissue; host or cells: rat hippocampus, membrane homogenate
T1 sequence (P19327 1-422): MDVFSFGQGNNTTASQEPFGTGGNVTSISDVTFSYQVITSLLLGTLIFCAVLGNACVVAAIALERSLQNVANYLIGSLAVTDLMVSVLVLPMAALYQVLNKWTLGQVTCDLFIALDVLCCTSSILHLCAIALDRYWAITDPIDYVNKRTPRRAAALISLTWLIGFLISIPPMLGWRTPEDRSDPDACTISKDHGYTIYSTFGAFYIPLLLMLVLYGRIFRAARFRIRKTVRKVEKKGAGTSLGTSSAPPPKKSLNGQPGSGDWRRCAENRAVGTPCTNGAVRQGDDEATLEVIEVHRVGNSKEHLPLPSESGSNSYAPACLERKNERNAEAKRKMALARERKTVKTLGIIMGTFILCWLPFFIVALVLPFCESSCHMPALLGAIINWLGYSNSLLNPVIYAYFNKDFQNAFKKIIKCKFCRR
As to the kind of experiment: 5-HT1A receptor binding activity in rat hippocampal membrane homogenate. The note with it: method of Alexander and Wood. As to the method:
The compounds of the invention are tested for 5-HT1A receptor binding activity in rat hippocampal membrane homogenate by the method of B S Alexander and M D Wood, J Pharm Pharmacol, 1988, 40, 888-891.

For assay [2], the target named is T2, 5-HT1A receptor (Cavia porcellus, UniProt A0A286Y074).
T2 construct: guinea-pig ileum in vitro; from tissue; host or cells: guinea-pig ileum
T2 sequence (A0A286Y074 1-421): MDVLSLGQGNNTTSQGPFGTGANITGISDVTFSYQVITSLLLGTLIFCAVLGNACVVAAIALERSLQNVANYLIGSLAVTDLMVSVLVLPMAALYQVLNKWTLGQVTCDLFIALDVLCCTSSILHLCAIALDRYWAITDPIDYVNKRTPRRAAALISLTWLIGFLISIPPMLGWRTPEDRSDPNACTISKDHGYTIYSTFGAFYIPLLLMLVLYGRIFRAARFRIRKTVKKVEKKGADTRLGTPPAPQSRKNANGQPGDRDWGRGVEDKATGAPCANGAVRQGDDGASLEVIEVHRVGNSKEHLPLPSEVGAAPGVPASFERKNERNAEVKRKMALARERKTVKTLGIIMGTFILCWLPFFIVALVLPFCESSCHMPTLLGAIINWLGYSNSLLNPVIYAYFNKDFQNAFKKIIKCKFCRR
The experiment in a line: 5-HT1A receptor antagonism: antagonism of 5-carboxamidotryptamine in the guinea-pig ileum in vitro. The format is cell-based. As to the method: The compounds are tested for 5-HT1A receptor antagonism activity in a test involving the antagonism of 5-carboxamidotryptamine in the guinea-pig ileum in vitro (based upon the procedure of Fozard et al, Br J Pharmac, 1985, 86, 601P).

Consider `COc1ccccc1N1CCN(CCc2ccccc2-c2ccccc2)CC1` [Example 3, 1-(2-(2-biphenyl)ethyl)-4-(2-methoxyphenyl)piperazine], for which the IC50 at 5-HT1A receptor [1] was 2 nM. Further, on 5-HT1A receptor [2], the “pA2, 5-HT1A receptor antagonism” value turned out to be 8.1.

A word on the IC50: it is the concentration at which inhibition is half-maximal.

These data come from patent US5430033A, “Piperazine derivatives” (John Wyeth & Brother Ltd., priority 1993, dated 1995).
